Key:
[1] = set-up: method as in Lu et al., 2008; conditions: ref Lu et al., 2008; cited from earlier work
[2] = target: T1, human PEPT1 (Homo sapiens, UniProt P46059); assay: Cellular transport assay, HEK-293 cells expressing human PEPT1; conditions: Danshen phenolic acid at 100 μM final concentration, 10 min, incubation pH 6.0; human transporter PEPE1 [sic], transfected vs mock cells
T1 sequence (P46059 1-708): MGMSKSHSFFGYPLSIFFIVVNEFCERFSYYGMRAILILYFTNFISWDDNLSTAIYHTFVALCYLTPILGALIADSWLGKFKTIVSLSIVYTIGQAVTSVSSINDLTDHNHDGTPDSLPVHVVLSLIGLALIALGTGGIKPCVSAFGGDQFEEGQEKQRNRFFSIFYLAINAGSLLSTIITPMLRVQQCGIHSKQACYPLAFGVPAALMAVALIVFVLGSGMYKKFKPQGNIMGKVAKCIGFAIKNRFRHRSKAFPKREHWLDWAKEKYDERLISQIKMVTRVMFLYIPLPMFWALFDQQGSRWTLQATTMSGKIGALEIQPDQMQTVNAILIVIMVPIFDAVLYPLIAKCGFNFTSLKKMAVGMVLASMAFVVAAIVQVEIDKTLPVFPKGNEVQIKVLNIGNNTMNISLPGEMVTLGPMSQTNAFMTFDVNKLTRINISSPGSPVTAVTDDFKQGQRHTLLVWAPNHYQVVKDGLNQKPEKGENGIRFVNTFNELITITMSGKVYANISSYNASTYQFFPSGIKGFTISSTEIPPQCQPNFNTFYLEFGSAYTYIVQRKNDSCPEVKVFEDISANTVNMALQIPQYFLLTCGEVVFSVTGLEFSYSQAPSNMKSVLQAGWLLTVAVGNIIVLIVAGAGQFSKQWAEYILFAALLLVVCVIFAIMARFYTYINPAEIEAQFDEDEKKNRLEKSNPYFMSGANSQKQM

[3] = target: T2, human OATP2B1 (Homo sapiens, UniProt O94956); assay: Cellular transport assay, HEK-293 cells expressing human OATP2B1; conditions: Danshen phenolic acid at 100 μM final concentration, 10 min; human OATP2B1-transfected vs mock cells
T2 sequence (O94956 1-709): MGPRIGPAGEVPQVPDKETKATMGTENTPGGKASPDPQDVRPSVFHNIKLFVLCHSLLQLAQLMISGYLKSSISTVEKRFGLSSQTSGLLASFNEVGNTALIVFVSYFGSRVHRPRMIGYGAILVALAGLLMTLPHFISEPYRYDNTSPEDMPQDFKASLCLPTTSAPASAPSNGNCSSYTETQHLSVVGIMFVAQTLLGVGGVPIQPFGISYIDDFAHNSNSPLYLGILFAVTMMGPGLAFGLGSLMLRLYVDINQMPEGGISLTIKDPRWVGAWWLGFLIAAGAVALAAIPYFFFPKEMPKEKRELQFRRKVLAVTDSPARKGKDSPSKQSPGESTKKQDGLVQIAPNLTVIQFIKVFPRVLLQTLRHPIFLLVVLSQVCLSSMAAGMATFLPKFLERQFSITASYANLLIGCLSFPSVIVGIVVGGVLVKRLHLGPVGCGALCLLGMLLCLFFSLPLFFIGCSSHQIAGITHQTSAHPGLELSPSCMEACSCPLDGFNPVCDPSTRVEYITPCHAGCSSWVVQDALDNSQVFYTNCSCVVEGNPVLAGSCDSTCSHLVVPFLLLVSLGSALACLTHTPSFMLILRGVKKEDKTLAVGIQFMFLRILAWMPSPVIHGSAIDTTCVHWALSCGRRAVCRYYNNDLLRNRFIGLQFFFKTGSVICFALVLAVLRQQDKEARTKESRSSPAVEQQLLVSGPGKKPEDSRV

[4] = target: T3, human OCT2 (Homo sapiens, UniProt O15244); assay: Cellular transport assay, HEK-293 cells expressing human OCT2; conditions: Danshen phenolic acid at 100 μM final concentration, 10 min; human OCT2-transfected vs mock cells
T3 sequence (O15244 1-555): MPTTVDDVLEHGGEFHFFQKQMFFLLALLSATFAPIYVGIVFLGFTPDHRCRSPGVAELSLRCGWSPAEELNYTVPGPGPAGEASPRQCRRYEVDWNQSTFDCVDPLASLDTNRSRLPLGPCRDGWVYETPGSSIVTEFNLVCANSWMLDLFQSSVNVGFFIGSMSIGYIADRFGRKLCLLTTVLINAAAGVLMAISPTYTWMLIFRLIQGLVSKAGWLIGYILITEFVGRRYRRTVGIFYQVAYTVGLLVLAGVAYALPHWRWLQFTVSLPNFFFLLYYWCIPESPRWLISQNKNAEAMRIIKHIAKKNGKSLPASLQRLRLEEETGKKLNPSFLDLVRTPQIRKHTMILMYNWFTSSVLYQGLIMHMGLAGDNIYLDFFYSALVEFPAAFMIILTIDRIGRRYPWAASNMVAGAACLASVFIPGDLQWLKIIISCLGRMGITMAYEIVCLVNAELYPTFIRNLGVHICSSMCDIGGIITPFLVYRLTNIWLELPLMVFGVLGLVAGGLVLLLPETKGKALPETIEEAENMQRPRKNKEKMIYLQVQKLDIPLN

[5] = target: T4, rat Oct2 (Rattus norvegicus, UniProt Q9R0W2); assay: Cellular transport assay, HEK-293 cells expressing rat Oct2; conditions: Danshen phenolic acid at 100 μM final concentration, 10 min; rat Oct2-transfected vs mock cells
T4 sequence (Q9R0W2 1-555): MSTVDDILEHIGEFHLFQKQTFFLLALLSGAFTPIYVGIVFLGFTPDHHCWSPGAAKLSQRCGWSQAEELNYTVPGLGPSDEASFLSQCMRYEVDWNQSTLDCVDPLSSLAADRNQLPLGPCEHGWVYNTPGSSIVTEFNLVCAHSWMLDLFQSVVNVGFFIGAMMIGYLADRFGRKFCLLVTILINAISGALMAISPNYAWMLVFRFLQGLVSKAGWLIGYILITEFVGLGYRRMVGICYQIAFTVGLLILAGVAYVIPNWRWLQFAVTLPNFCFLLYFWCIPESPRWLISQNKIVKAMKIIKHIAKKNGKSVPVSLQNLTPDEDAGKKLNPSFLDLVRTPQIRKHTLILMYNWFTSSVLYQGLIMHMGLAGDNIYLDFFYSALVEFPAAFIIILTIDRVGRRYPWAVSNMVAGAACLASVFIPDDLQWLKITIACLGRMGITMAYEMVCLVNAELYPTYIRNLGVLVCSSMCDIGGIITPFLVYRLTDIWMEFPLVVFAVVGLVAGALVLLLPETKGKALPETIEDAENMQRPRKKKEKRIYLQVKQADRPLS

## O=C(/C=C/c1ccc(O)c(O)c1)O[C@H](Cc1ccc(O)c(O)c1)C(=O)O [Rosmarinic acid, rosmarinic acid]
[1]
  membrane permeability: poor

## O=C(O)c1ccc(O)c(O)c1 [Protocatechuic acid, protocatechuic acid]
[2]
  TransportTC/TransportMC ratio (net transport ratio): 0.93 ± 0.34
[1]
  membrane permeability: fairly good
[3]
  TransportTC/TransportMC ratio (net transport ratio): 1.36 ± 0.15
[4]
  TransportTC/TransportMC ratio (net transport ratio): 0.75 ± 0.35
[5]
  TransportTC/TransportMC ratio (net transport ratio): 0.92 ± 0.08

## O=C(O)Cc1c(/C=C/C(=O)O[C@H](Cc2ccc(O)c(O)c2)C(=O)O)ccc(O)c1O [Salvianolic acid D, salvianolic acid D]
[2]
  TransportTC/TransportMC ratio (net transport ratio): 1.06 ± 0.20
[1]
  membrane permeability: poor
[3]
  TransportTC/TransportMC ratio (net transport ratio): 2.27 ± 1.16
[4]
  TransportTC/TransportMC ratio (net transport ratio): 0.85 ± 0.26
[5]
  TransportTC/TransportMC ratio (net transport ratio): 1.44 ± 0.24

## salvianolic acid B
[2]
  TransportTC/TransportMC ratio (net transport ratio): 2.05 ± 0.22
[3]
  TransportTC/TransportMC ratio (net transport ratio): 1.32 ± 0.33
[4]
  TransportTC/TransportMC ratio (net transport ratio): 0.75 ± 0.23
[5]
  TransportTC/TransportMC ratio (net transport ratio): 1.08 ± 0.21

## O=C(/C=C/c1ccc(O)c2c1[C@H](C(=O)O)[C@@H](c1ccc(O)c(O)c1)O2)O[C@H](Cc1ccc(O)c(O)c1)C(=O)O [Lithospermic acid, lithospermic acid]
[2]
  TransportTC/TransportMC ratio (net transport ratio): 1.86 ± 0.36
[3]
  TransportTC/TransportMC ratio (net transport ratio): 1.16 ± 0.27
[4]
  TransportTC/TransportMC ratio (net transport ratio): 0.89 ± 0.31
[5]
  TransportTC/TransportMC ratio (net transport ratio): 1.11 ± 0.32
